Measurements published in US20160193216A1 (Nimbus Iris, Inc., priority 2012, published 2016).
pIC50: −log10 of the molar value. Like-named read-outs stand apart in the source and are kept apart here.

How the values were obtained:
THP-1 cells = experiment: LPS induced cytokine (TNFα and IL8) production assay in THP-1 cells; format: cell-based; conditions: Homo sapiens, 300 ng/mL LPS
How it was run: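 THP-1 cells (100,000/well) pre-incubated 1 hour with compound in 0.3% DMSO, then stimulated with 300 ng/mL LPS. TNFα and IL8 in supernatant measured by HTRF at 5 hours; IL8 and viability also at 16 hours.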

IRAK4 = target: T1, IRAK4 (Homo sapiens, UniProt Q9NWZ3); experiment: IRAK-4 activity inhibition assay (Caliper); format: biochemical; conditions: 37 μM ATP, 3.5 nM IRAK4
T1 sequence (Q9NWZ3 1-460): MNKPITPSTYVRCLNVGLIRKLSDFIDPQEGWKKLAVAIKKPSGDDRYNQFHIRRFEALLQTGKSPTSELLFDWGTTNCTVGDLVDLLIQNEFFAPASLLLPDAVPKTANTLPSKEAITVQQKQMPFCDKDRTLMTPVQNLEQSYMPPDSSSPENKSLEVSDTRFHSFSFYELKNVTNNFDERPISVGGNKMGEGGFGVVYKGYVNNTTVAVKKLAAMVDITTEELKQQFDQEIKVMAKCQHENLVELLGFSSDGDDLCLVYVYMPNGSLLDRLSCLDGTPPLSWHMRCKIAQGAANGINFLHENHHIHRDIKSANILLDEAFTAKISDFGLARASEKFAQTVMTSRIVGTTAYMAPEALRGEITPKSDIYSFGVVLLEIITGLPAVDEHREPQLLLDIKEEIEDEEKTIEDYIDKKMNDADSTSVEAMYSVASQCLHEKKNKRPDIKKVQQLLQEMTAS

Whole Blood = experiment: In vitro LPS/R848-induced cytokine production assay in whole blood; format: cell-based, human
Method: (§1) In Vitro LPS/R848/CpG-Induced Cytokine Production Assays in hPBMC or Whole Blood
(§2) Compounds of the present invention were also studied in in vitro LPS/R848/CpG-induced cytokine production assays. Exemplary protocols follow.
(§3) […] Cells were seeded in a 96-well plate with 130 ul/well of the cell suspension according to the plate map. 9 ul of 30 mM compound solution was added into the wells in the assigned rows, then serial solutions with 4× dilutions were made. That is, add 9 uL of 100% DMSO into each of the rest wells and take 3 uL of compound solution from the one-step higher concentration solution and mix well with the DMSO. For the second compound master plate, 196 uL of the growth medium (no serum media) were added into each of the wells and 4 uL of the compound solution from the first compound master plate was added and mixed with the media. Cells were treated for 0.5 h by adding 20 uL of the compound and the control solutions prepared in the second master plate to each well according to the plate map. […] Plates were sealed with sealing films and the plates were centrifuged at 3000 rpm at 4 degrees C. for 5 min. The supernatants were transferred, and 100 ul of working Capture antibody solution was added to each well. The plates were sealed and incubated overnight at RT. IL-6, IFN-α or TNF-α detection antibody labeled with biotin: Added 100 uL of the Detection Antibody solution to each well. Covered the plate and incubated for 2 h at RT. Added 100 uL of Streptavidin-HRP solution to each well. Covered the plate and incubate for 20 min at RT in dark. Added 100 uL of Substrate Solution to each well. Incubated for 20 min at RT in dark. Added 50 uL of Stop Solution to each well. Gently tapped the plate to ensure thorough mixing. Determined the optical density of each well immediately, using a microplate reader set to 450 nm and also read at 540 nm or 570 nm for correction if wavelength correction is not available.

hPBMC = experiment: In vitro LPS/R848/CpG/IL-1β-induced cytokine production assay in hPBMC; format: cell-based; conditions: Homo sapiens
Method: as §1, §2, §3

[1] = system: collagen-induced arthritis; experiment: In vivo murine collagen-induced arthritis model; conditions: DBA mice, intraperitoneally 30 mg/kg twice a day, vs vehicle
Method: In Vivo Murine Collagen-Induced Arthritis Model Compounds of the present invention were also evaluated in mice in an in vivo efficacy model for inhibiting IRAK4-mediated arthritis. An exemplary protocol for this assay follows. Male DBA mice were immunized with collagen on day 0 and day 21 and randomly enrolled into groups upon onset of disease. […] Eight mice were enrolled per group with the exception of the naïve control group, which contained four mice. Day 1 was designated as the first treatment day, and mice were evaluated daily for clinical scores until day 11. The mice were weighed on alternating days.

ABC DLBCL Cells = experiment: sensitization of ABC DLBCL cells to IRAK inhibitors by BTK knockdown; format: cell-based; conditions: BTK knockdown (FIG. 9)
From the text: FIG. 8 depicts the sensitization of ABC DLBCL Cells to IRAK Inhibitors by BTK knockdown.

ABC DLBCL cell lines = experiment: Cell viability assay, combination with ibrutinib; format: cell-based
Method: Compounds of the present invention were also evaluated in a cell viability assay.

OCI-Ly10 cells = experiment: In vivo murine xenograft tumor model of human ABC DLBCL lymphoma; conditions: NOD/SCID mice
Method: In Vivo Murine Tumor Model of Human ABC DLBCL Lymphoma
Compounds of the present invention were also evaluated in a xenograft tumor model of human ABC DLBCL lymphoma first described and disclosed in Staudt et al. (2012). The tumor was established by subcutaneous injection of OCI-Ly10 cells into immunodeficient (NOD/SCID) mice. […] Tumor growth was monitored by measuring tumor size in two orthogonal directions. The tumor volume was calculated by using the formula (1/2)(long dimension)×(short dimension)^2.

GCB DLBCL Cells = experiment: sensitization of GCB DLBCL cells by BTK knockdown; format: cell-based; conditions: BTK knockdown (FIG. 10)
[2] = Homo sapiens, LPS 0.1 ug/mL, read-out: TNF-α production IC50
[3] = Homo sapiens, R848 1 uM, read-out: IFN-α production IC50
[4] = R848 1 uM, read-out: TNF-α production IC50
[5] = LPS 0.01 ug/mL, read-out: IL-6 production IC50
[6] = LPS 0.01 ug/mL, read-out: TNF-α production IC50
[7] = Homo sapiens, LPS 0.1 ug/mL, read-out: IL-6 production IC50

SMILES	pIC50 (THP-1 cells; read-out: IL8 production IC50)	pIC50 (THP-1 cells; read-out: TNFα production IC50)	pIC50 (IRAK4)	pIC50 (Whole Blood; [2])	pIC50 (Whole Blood; [3])	pIC50 (Whole Blood; [4])	other results
CN(CC(=O)N1CCCC1)[C@H]1CC[C@H](Oc2ncnc3sc4c(c23)[C@@H](CC(N)=O)CC4)CC1 [Compound I-73, 2-[(3R)-12-[(4-[methyl[2-oxo-2-(pyrrolidin-1-yl)ethyl]amino]cyclohexyl)oxy]-7-thia-9,11-diazatricyclo[6.4.0.0[2,6]]dodeca-1(8),2(6),9,11-tetraen-3-yl]acetamide]	5.30 to 6.00	5.30 to 6.00	> 5.30	≤ 6.00			
CN(C)[C@H]1CC[C@H](Oc2ncnc3sc4c(c23)C[C@@H](C(N)=O)CC4)CC1 [Compound I-233, (12S)-3-[[4-(dimethylamino)cyclohexyl]oxy]-8-thia-4,6-diazatricyclo[7.4.0.0[2,7]]trideca-1(9),2(7),3,5-tetraene-12-carboxamide]	≥ 6.30	≥ 6.30	> 5.30	≤ 6.00	≤ 6.00	≤ 6.00	
Cn1cc(Nc2nc(O[C@H]3CC[C@H](N(C)C)CC3)c3c4c(sc3n2)CCC4CC(N)=O)cn1 (stereo in doubt) [Compound I-224, 2-[(3S)-12-[[4-(dimethylamino)cyclohexyl]oxy]-10-[(1-methyl-1H-pyrazol-4-yl)amino]-7-thia-9,11-diazatricyclo[6.4.0.0[2,6]]dodeca-1(8),2(6),9,11-tetraen-3-yl]acetamide]	≥ 6.30	≥ 6.30		≤ 6.00	≤ 6.00		
NC(=O)C[C@H]1CCc2sc3ncnc(O[C@H]4CC[C@H](N5CCCC5)CC4)c3c21 [Compound I-105, 2-[(3R)-12-[[4-(pyrrolidin-1-yl)cyclohexyl]oxy]-7-thia-9, 11-diazatricyclo[6.4.0.0[2,6]]dodeca-1(8),2(6),9, 11-tetraen-3-yl]acetamide]	≥ 6.30	6.00 to 6.30	> 5.30	≤ 6.00			
CN[C@H]1CC[C@H](Oc2ncnc3sc4c(c23)[C@@H](CC(N)=O)CC4)CC1 [Compound I-79, 2-[(3R)-12-[[4-(methylamino)cyclohexyl]oxy]-7-thia-9,11-diazatricyclo[6.4.0.0̂[2,6]]dodeca-1(8),2(6),9,11-tetraen-3-yl]acetamide]	6.00 to 6.30	5.30 to 6.00	> 5.30	≤ 6.00			pIC50 (hPBMC; [5]): ≤ 6.00; pIC50 (hPBMC; [6]): ≤ 6.00; pIC50 (Whole Blood; [7]): ≤ 6.00
CCN[C@H]1CC[C@H](Oc2ncnc3sc4c(c23)[C@@H](CC(N)=O)CC4)CC1 [Compound I-85, 2-((R)-4-(((1r,4R)-4-(ethylamino)cyclohexyl)oxy)-6,7-dihydro-5H-cyclopenta[4,5]thieno[2,3-d]pyrimidin-5-yl)acetamide]	6.00 to 6.30	6.00 to 6.30	> 5.30	≤ 6.00			
Cn1cc(Nc2nc(O[C@H]3CC[C@H](N4CCOCC4)CC3)c3c4c(sc3n2)CC[C@@H]4CC(N)=O)cn1 [Compound I-235]	≥ 6.30	≥ 6.30		≤ 6.00	≤ 6.00		
NC(=O)[C@@H](O)C[C@H]1CCc2sc3ncnc(O[C@H]4CC[C@H](N5CCOCC5)CC4)c3c21 [Compound I-92, (S)-2-hydroxy-3-((R)-4-(((1r,4R)-4-morpholinocyclohexyl)oxy)-6,7-dihydro-5H-cyclopenta[4,5]thieno[2,3-d]pyrimidin-5-yl)propanamide]	≥ 6.30	≥ 6.30		6.00 to 6.30	6.00 to 6.30	6.00 to 6.30	Clinical scores, collagen-induced arthritis [1]: efficacious compared to the vehicle; sensitization of ABC DLBCL Cells to compound by BTK knockdown (ABC DLBCL Cells): sensitization; Killing of ABC DLBCL cells in combination with ibrutinib (ABC DLBCL cell lines): Synergistic killing; pIC50 (hPBMC; CpG 0.1 uM, read-out: IFN-α production IC50): 6.30 to 6.60; pIC50 (hPBMC; CpG 0.5 uM, read-out: TNF-α production IC50): ≥ 6.60; pIC50 (hPBMC; IL-1β 1 ng/mL, read-out: IL-6 production IC50): ≥ 6.60; pIC50 (hPBMC; [5]): ≥ 6.60; pIC50 (hPBMC; [6]): ≥ 6.60; pIC50 (hPBMC; [4]): ≥ 6.60; pIC50 (Whole Blood; [7]): ≥ 6.60; ABC lymphoma growth (tumor volume) (OCI-Ly10 cells): reduces ABC lymphoma growth; Tolerability in the animals (OCI-Ly10 cells): well tolerated; sensitization of GCB DLBCL Cells to compound by BTK Knockdown (GCB DLBCL Cells): lack of sensitization
NC(=O)[C@H]1CCc2sc3ncnc(O[C@H]4CC[C@H](N5CCOCC5)CC4)c3c2C1 [Compound I-220, (12S)-3-[[4-(morpholin-4-yl)cyclohexyl]oxy]-8-thia-4,6-diazatricyclo[7.4.0.0[2,7]]trideca-1(9),2(7),3,5-tetraene-12-carboxamide]	≥ 6.30	≥ 6.30	> 5.30	≤ 6.00	≤ 6.00	≤ 6.00	
